Experimental data as given in US4492704A, “Quinoline quinones and anti-asthmatic use thereof” (Eli Lilly and Company, priority 1982, dated 1985).
Read-outs that look alike come from different tables or passages of the source.

How the values were obtained:
[1] = test system: SRS-A release; assay: Inhibition of SRS-A (leukotriene) release from ovalbumin-challenged sensitized guinea pig lung fragments; format: cell-based; settings: for inhibition at 30 µM / inhibition at 10 µM / inhibition at 1 µM / inhibition at 3 µM: Cavia porcellus, read-out: Percent Inhibition of SRS-A Release
Protocol: Male, Hartley guinea pigs, usually 1-2 weeks old were sensitized with respect to ovalbumin by intraperitoneal administration of 0.15 ml hyperimmune serum obtained from guinea pigs actively sensitized against ovalbumin. […] Poorly perfused and bloody areas were discarded. Normal lung was cut into 1 mm cubes with a McIlwain tissue chopper, washed with Krebs' solution and divided into 400 mg aliquots. The fragmented tissue was then incubated at 37° C. for 15 minutes in Krebs' solution containing indomethacin to optimize SRS-A release and an appropriate concentration of experimental drug. Antigen (ovalbumin) was then added to make a final concentration of 1×10^-5 g/ml. Fifteen minutes later, the incubation medium was decanted and centrifuged at 3,000 g at 4° C. for 5 minutes. […] Release of SRS-A in the presence of an experimental drug was compared to a control sample and the results expressed as percent inhibition of SRS-A release.

[2] = pKa using 66% aqueous dimethylformamide solution; format: physicochemical
Protocol: The precipitate was then dissolved in a solution of 1 L of water and 50 g of sodium hydroxide and then heated to about 60° for about ten minutes. Slowly, 50 g of sodium dithionite were added with stirring. After the addition, the reaction solution was kept at about 60° for about three hours. An orange precipitate was formed and the reaction was then allowed to cool to room temperature and sodium chloride was added. The orange solid, which was filtered and then dried, weighed 19 g (70% yield).
The preparation of 2-methyl-5-amino-8-hydroxyquinoline follows the procedure outlined in Example 1, except 15.9 g of 2-methyl-8-hydroxyquinoline were used as the starting material. […] The mass spectrum indicated the expected molecular ion at m/e=174. The pKa was 5.00, using 66% aqueous dimethylformamide solution and the apparent molecular weight was 188.

[3] = 3 × 10^-5 M, sensitized guinea pig lung fragments, ovalbumin challenge, indomethacin present
[4] = 1 × 10^-5 M, sensitized guinea pig lung fragments, ovalbumin challenge, indomethacin present
[5] = 1 × 10^-6 M, sensitized guinea pig lung fragments, ovalbumin challenge, indomethacin present
[6] = 3 × 10^-6 M, sensitized guinea pig lung fragments, ovalbumin challenge, indomethacin present

Compound | inhibition at 30 µM [1, 3] [%] | inhibition at 10 µM [1, 4] [%] | also measured
CC(C)NC1=CC(=O)c2ncccc2C1=O [6-isopropylaminoquinoline-5,8-quinone] | 28 | – | –
O=C1C(N2CCCCC2)=CC(=O)c2ncccc21 [6-piperidinylquinoline-5,8-quinone] | – | 68 | –
O=C1C(N2CCOCC2)=CC(=O)c2ncccc21 [6-morpholinylquinoline-5,8-quinone] | 63 | 28 | –
O=C1C(Nc2ccccc2C(F)(F)F)=CC(=O)c2ncccc21 [6-(2-trifluoromethylanilino)quinoline-5,8-quinone] | – | 52 | –
Cc1ccc2c(n1)C(=O)C=C(Nc1ccccc1)C2=O [Example 11, 2-methyl-6-anilinoquinoline-5,8-quinone] | – | 55 | –
O=C1C(NC2CC2)=CC(=O)c2ncccc21 [6-cyclopropylaminoquinoline-5,8-quinone] | 48 | – | –
O=C1C(Nc2ccccc2Cl)=CC(=O)c2ncccc21 [6-(2-chloroanilino)quinoline-5,8-quinone] | 78 | – | inhibition at 1 µM [1, 5]: 24%; inhibition at 3 µM [1, 6]: 23%
O=C1C(NC2CCCCC2)=CC(=O)c2ncccc21 [Example 14, 6-cyclohexylaminoquinoline-5,8-quinone] | – | 53 | inhibition at 1 µM [1, 5]: 0%
CSc1cccc(NC2=CC(=O)c3ncccc3C2=O)c1 [6-(3-methylthioanilino)quinoline-5,8-quinone] | 55 | – | inhibition at 3 µM [1, 6]: 16%
CN(C)CCNC1=CC(=O)c2ncccc2C1=O [Example 18, 6-dimethylaminoethylaminoquinoline-5,8-quinone] | – | 40 | –
O=C1C(Nc2cccc3c2CCCC3)=CC(=O)c2ncccc21 [Example 12, 6-(1-amino-5,6,7,8-tetrahydronaphthalene)quinoline-5,8-quinone] | – | 23 | –
O=C1C(Nc2ccccc2F)=CC(=O)c2ncccc21 [Example 17, 6-(2-flouroanilino)quinoline-5,8-quinone] | – | 71 | inhibition at 1 µM [1, 5]: 0%
C=CCNC1=CC(=O)c2ncccc2C1=O [6-(2-propenyl)aminoquinoline-5,8-quinone] | – | 53 | –
6-(flouroanilino)quinoline-5,8-quinone [Example 16] | – | – | Percent Inhibition of SRS-A Release [1, 4]: 39%
Cc1ccc2c(N)ccc(O)c2n1 [Example 2, 2-methyl-5-amino-8-hydroxyquinoline] | – | – | pKa [2]: 5
O=C1C(Nc2cccc(Br)c2)=CC(=O)c2ncccc21 [Example 23, 6-(3-bromoanilino)quinoline-5,8-quinone] | – | 45 | –
CCN(C1=CC(=O)c2ncccc2C1=O)c1ccccc1 [Example 15, 6-(N--ethylanilino)quinoline-5,8-quinone] | – | 53 | –
Cc1ccccc1NC1=CC(=O)c2ncccc2C1=O [6-(2-methylanilino)quinoline-5,8-quinone] | 80 | – | inhibition at 3 µM [1, 6]: 17%

Compound | inhibition at 30 µM [1, 3] [%] | inhibition at 10 µM [1, 4] [%] | also measured
O=C1C(Nc2cccc(C(F)(F)F)c2)=CC(=O)c2ncccc21 [Example 24, 6-(3-triflouromethylanilino)quinoline-5,8-quinone] | – | 53 | –
C=CCN(C1=CC(=O)c2ncccc2C1=O)c1ccccc1 [6-[N--(2-propenyl)anilino]quinoline-5,8-quinone] | – | 41 | –
COc1cccc(NC2=CC(=O)c3ncccc3C2=O)c1 [Example 21, 6-(3-methoxyanilino)quinoline-5,8-quinone] | – | 72 | –
CC(=O)c1cccc(NC2=CC(=O)c3ncccc3C2=O)c1 [Example 25, 6-(3-acetylanilino)quinoline-5,8-quinone] | – | – | inhibition at 3 µM [1, 6]: 36%
O=C1C(Nc2ccc(Cl)cc2)=CC(=O)c2ncccc21 [6-(4-chloroanilino)quinoline-5,8-quinone] | 68 | 23 | –
COc1ccc(NC2=CC(=O)c3ncccc3C2=O)cc1 [Example 8, 6-(4-methoxyanilino)quinoline-5,8-quinone] | – | 32 | –
O=C1C(Nc2ccc(O)cc2)=CC(=O)c2ncccc21 [Example 13, 6-(4-hydroxyanilino)quinoline-5,8-quinone] | – | 58 | –
Cc1cccc(NC2=CC(=O)c3ncccc3C2=O)c1 [Example 20, 6-(3-methylanilino)quinoline-5,8-quinone] | – | 69 | –
O=C1C(Nc2ccccc2)=CC(=O)c2ncccc21 [7,10, 6-anilinoquinoline-5,8-quinone] | – | – | inhibition at 1 µM [1]: 28%; inhibition at 3 µM [1]: 54%; inhibition at 10 µM [1]: 79%; inhibition at 30 µM [1]: 86%
CN(C1=CC(=O)c2ncccc2C1=O)c1ccccc1 [6-(N--methylanilino)quinoline-5,8-quinone] | – | 80 | inhibition at 1 µM [1, 5]: 16%; inhibition at 3 µM [1, 6]: 27%
O=C1C(Nc2cccc(F)c2)=CC(=O)c2ncccc21 [Example 19, 6-(3-flouroanilino)quinoline-5,8-quinone] | 94 | 76 | inhibition at 1 µM [1, 5]: 13%
CCCN(C1=CC(=O)c2ncccc2C1=O)c1ccccc1 [6-(N--propylanilino)quinoline-5,8-quinone] | 39 | 28 | –
O=C1C(Nc2ccc([N+](=O)[O-])cc2)=CC(=O)c2ncccc21 [Example 9, 6-(4-nitroanilino)quinoline-5,8-quinone] | – | 41 | –
CNC1=CC(=O)c2ncccc2C1=O [6-methylaminoquinoline-5,8-quinone] | 51 | 28 | –
CCCN(C)C1=CC(=O)c2ncccc2C1=O [6-methylpropylaminoquinoline-5,8-quinone] | – | – | Percent Inhibition of SRS-A Release [1, 3]: 61%
O=C1C(Nc2cccc(Cl)c2)=CC(=O)c2ncccc21 [Example 22, 6-(3-chloroanilino)quinoline-5,8-quinone] | – | 71 | –
COc1cc(N)c2ncccc2c1N [Example 1, 5,8-diamino-6-methoxyquinoline] | – | – | pKa [2]: 5.08
COc1ccccc1NC1=CC(=O)c2ncccc2C1=O [6-(2-methoxyanilino)quinoline-5,8-quinone] | 38 | – | inhibition at 3 µM [1, 6]: 0%
